Laboratory results reported in ChEMBL document CHEMBL5584343, “Cerastecin Inhibition of the Lipooligosaccharide Transporter MsbA to Combat Acinetobacter baumannii: From Screening Impurity to In Vivo Efficacy” (J Med Chem, 2024).
In brackets after ≈: the same amount, converted by molar mass. Each block holds one compound with its values, some of them ahead of it.

Columns and labels:
[1] = Cytotoxicity against GFP fused human MT4 cells cultured under serum free condition for 24 hrs by CellTiter-Glo assay; format: toxicity, cell-based; settings: GFP fused MT4 cells
[2] = test system: Acinetobacter baumannii; assay: Antibacterial activity against Acinetobacter baumannii ATCC19606 assessed as bacterial growth inhibition incubated for 18 to 20 hrs by microbroth dilution method; format: functional; settings: time 18-20 hrs
[3] = test system: Acinetobacter baumannii; assay: Antibacterial activity against Acinetobacter baumannii ATCC19606 incubated for 18 to 20 hrs in presence of 10% human serum by microbroth dilution method; format: functional; settings: time 18-20 hrs
[4] = Cmax in male C57BL/6 mouse at 300 mg/kg, sc measured after 24 hrs by LC-MS/MS analysis; format: ADME, organism-based; settings: in vivo
[5] = Plasma protein binding in C57BL/6 mouse assessed as free fraction at 1000 to 100000 ng/ml by equilibrium dialysis based LC-MS/MS analysis; format: ADME, cell-free; settings: dose 1000-100000 ng/ml
[6] = Inhibition of wildtype Acinetobacter baumannii MsbA preincubated for 30 mins followed by ATP addition and measured after 1 hrs by Transcreener ADP2 F1 assay
[7] = AUC (0 to infinity) in male C57BL/6 mouse at 300 mg/kg, sc measured after 24 hrs by LC-MS/MS analysis; format: ADME, organism-based; settings: in vivo
[8] = Lipophilicity, logD of compound at pH 7 by HPLC analysis; format: physicochemical; settings: buffer
[9] = test system: Acinetobacter baumannii; assay: Selectivity ratio of MIC95 for antibacterial activity against Acinetobacter baumannii ATCC19606 in the presence of 10% human serum to MIC95 for antibacterial activity against Acinetobacter baumannii ATCC19606; format: functional
[10] = test system: Acinetobacter baumannii; assay: (§1) Antibacterial activity against Acinetobacter baumannii CLB21655 infected in female DBA mouse lung infection model assessed as fold change in colony forming units in lung at 160 mg/kg, sc pre-infected with bacteria for 2 hrs followed by compound administration and measured after 24 hrs in presence of ceftazidime relative to control; format: functional
[11] = test system: Acinetobacter baumannii; assay: as §1, with “reduction” for “fold change”, “bacterial burden” for “colony forming units”, “(reference value: 9.7 log10CFU/g)” for “relative to control”; format: functional
[12] = test system: Acinetobacter baumannii; assay: Antibacterial activity against Acinetobacter baumannii clinic isolates; format: functional
[13] = test system: Acinetobacter baumannii; assay: Antibacterial activity against wild type Acinetobacter baumannii; format: functional
[14] = test system: Acinetobacter baumannii; assay: Antibacterial activity against Acinetobacter baumannii ATCC 19606 assessed as bacterial growth inhibition incubated overnight by spectrophotometric analysis; format: functional
[15] = test system: Acinetobacter baumannii; assay: as §1, with “reduction” for “fold change”, “bacterial burden” for “colony forming units”, “640” for “160”, “avibactam (reference value: 9.7 log10CFU/g)” for “ceftazidime relative to control”; format: functional
[16] = test system: Acinetobacter baumannii; assay: as §1, with “640” for “160”, “avibactam” for “ceftazidime”; format: functional
[17] = test system: Acinetobacter baumannii; assay: (§2) Antibacterial activity against Acinetobacter baumannii CLB21655 infected in female DBA mouse lung infection model assessed as reduction in bacterial burden in lung at 300 mg/kg, sc pre-infected with bacteria for 2 hrs followed by thrice daily compound administration with 3 hrs interval and measured after 24 hrs (reference value: 9.7 log10CFU/g); format: functional
[18] = test system: Acinetobacter baumannii; assay: Selectivity ratio of MIC95 for antibacterial activity against Acinetobacter baumannii ATCC19606 in the presence of 1% human serum to MIC95 for antibacterial activity against Acinetobacter baumannii ATCC19606; format: functional
[19] = test system: Acinetobacter baumannii; assay: as §1, with “300” for “160”, “by once daily” for “by”, “hrs” for “hrs in presence of ceftazidime”; format: functional
[20] = test system: Acinetobacter baumannii; assay: (§3) Antibacterial activity against Acinetobacter baumannii CLB21655 infected in female DBA mouse blood stream infection model assessed as reduction in bacterial burden in spleen at 100 mg/kg, sc pre-infected with bacteria for 0.5 hrs followed by once daily compound administration and measured after 8 hrs (reference value: 6.5 log10CFU/g); format: functional
[21] = test system: Acinetobacter baumannii; assay: as §1, with “300” for “160”, “by thrice daily” for “by”, “administration with 3 hrs interval” for “administration”, “hrs” for “hrs in presence of ceftazidime”; format: functional
[22] = test system: Acinetobacter baumannii; assay: as §2, with “once” for “thrice”, “administration” for “administration with 3 hrs interval”; format: functional
[23] = test system: Acinetobacter baumannii; assay: Antibacterial activity against Acinetobacter baumannii ATCC19606 incubated for 18 to 20 hrs in presence of 50% mouse serum by microbroth dilution method; format: functional; settings: time 18-20 hrs
[24] = test system: Acinetobacter baumannii; assay: (§4) Antibacterial activity against Acinetobacter baumannii CLB21655 infected in female DBA mouse blood stream infection model assessed as fold change in colony forming units in spleen at 200 mg/kg, sc pre-infected with bacteria for 0.5 hrs followed by once daily compound administration and measured after 8 hrs relative to control; format: functional
[25] = test system: Acinetobacter baumannii; assay: as §3, with “300” for “100”, “thrice” for “once”, “6.3” for “6.5”; format: functional
[26] = test system: Acinetobacter baumannii; assay: as §3, with “200” for “100”; format: functional
[27] = Plasma protein binding in C57BL/6 mouse at 1000 to 100000 ng/ml by equilibrium dialysis based LC-MS/MS analysis; format: ADME, cell-free; settings: dose 1000-100000 ng/ml, read-out: PPB (converted)
[28] = test system: Acinetobacter baumannii; assay: as §3, with “300” for “100”; format: functional
[29] = test system: Acinetobacter baumannii; assay: as §4, with “100” for “200”; format: functional
[30] = test system: Acinetobacter baumannii; assay: as §4, with “10” for “200”, “thrice” for “once”; format: functional
[31] = test system: Acinetobacter baumannii; assay: Antibacterial activity against Acinetobacter baumannii ATCC19606 incubated for 18 to 20 hrs in presence of 1% of human serum by microbroth dilution method; format: functional; settings: time 18-20 hrs
[32] = test system: Acinetobacter baumannii; assay: as §4, with “300” for “200”; format: functional
[33] = Cmax in male C57BL/6 mouse at 300 mg/kg, sc administered 3 times a day with 3 hrs interval and measured after 24 hrs by LC-MS/MS analysis; format: ADME, organism-based; settings: in vivo
[34] = Plasma protein binding in human at 1000 to 100000 ng/ml by equilibrium dialysis based LC-MS/MS analysis; format: ADME, cell-free; settings: dose 1000-100000 ng/ml, read-out: PPB (converted)
[35] = Cmax in male C57BL/6 mouse at 300 mg/kg, sc administered once in a day and measured after 24 hrs by LC-MS/MS analysis; format: ADME, organism-based; settings: in vivo
[36] = test system: Acinetobacter baumannii; assay: as §2, with “with 6” for “with 3”, “value: 6.3” for “value: 9.7”; format: functional
[37] = test system: Acinetobacter baumannii; assay: as §1, with “300” for “160”, “by thrice daily” for “by”, “administration with 6 hrs interval” for “administration”, “hrs” for “hrs in presence of ceftazidime”; format: functional
[38] = Plasma protein binding in dog at 1000 to 100000 ng/ml by equilibrium dialysis based LC-MS/MS analysis; format: ADME, cell-free, Canis lupus familiaris; settings: dose 1000-100000 ng/ml, read-out: PPB (converted)
[39] = AUC (0 to infinity) in male C57BL/6 mouse at 300 mg/kg, sc administered once in a day and measured after 24 hrs by LC-MS/MS analysis; format: ADME, organism-based; settings: mouse, in vivo, sc, 300 mg/kg, 24 h
[40] = AUC (0 to infinity) in male C57BL/6 mouse at 300 mg/kg, sc administered 3 times a day with 3 hrs interval and measured after 24 hrs by LC-MS/MS analysis; format: ADME, organism-based; settings: mouse, in vivo, sc, 300 mg/kg, 24 h
[41] = test system: Acinetobacter baumannii; assay: as §4, with “10” for “200”; format: functional
[42] = test system: Acinetobacter baumannii; assay: as §1, with “10” for “160”, “hrs” for “hrs in presence of ceftazidime”; format: functional
[43] = test system: Acinetobacter baumannii; assay: as §3, with “10” for “100”, “5.85” for “6.5”; format: functional
[44] = test system: Acinetobacter baumannii; assay: as §3, with “10” for “100”, “thrice” for “once”, “6.3” for “6.5”; format: functional
[45] = test system: Acinetobacter baumannii; assay: as §2, with “10” for “300”, “by” for “by thrice daily”, “administration” for “administration with 3 hrs interval”, “6.3” for “9.7”; format: functional

MIC95 [2]: 0.024 µM (≈ 0.0197 µg/mL) | MIC95 [3]: 6.25 µM | Cmax [4]: 502 µM | Fu [5]: 0.6% | EC50 [6]: 7.3 nM | AUC [7]: 7970 µM·h | logD [8]: 1.8
SMILES: O=C(O)c1cc(CN2CC(Oc3ccc(NS(=O)(=O)c4ccc(-c5ccc(F)cc5)s4)c(C(=O)O)c3)C2)ccc1NS(=O)(=O)c1cnn(-c2ccc(F)cc2)c1
EC50 at 24 h [1]: > 42 µM | Selectivity ratio [9]: 260

SMILES: NC(=O)[C@@H]1CC[C@@H]2CN1C(=O)N2OS(=O)(=O)O [AVIBACTAM]
fold change (FC) [10]: 2.1 | Activity [11]: 7.6 log10CFU/g

SMILES: CN1C(=O)[C@H](CCCCN)NC(=O)[C@H](CCCN)NCc2cccnc2Sc2cccc(-c3ccc(C(=O)O)cc3)c2CNC(=O)[C@@H]1Cc1c[nH]c2ccccc12 [ZOSURABALPIN]
MIC [12]: 0.12 µg/mL (≈ 0.152 µM) | MIC [13]: 0.3 µM (≈ 0.237 µg/mL)

MIC [14]: ≤ 12.5 µM
SMILES: CCCCc1ccc(S(=O)(=O)Nc2ccc(NC(=O)N3CCOCC3)cc2C(=O)O)cc1

SMILES: CC(C)(O/N=C(\C(=O)N[C@@H]1C(=O)N2C(C(=O)[O-])=C(C[n+]3ccccc3)CS[C@H]12)c1csc(N)n1)C(=O)O [CEFTAZIDIME]
Activity [15]: 7.6 log10CFU/g | fold change (FC) [16]: 2.1

MIC95 [2]: 0.277 µM (≈ 0.228 µg/mL) | EC50 [6]: 50 nM | MIC95 [23]: 50 µM | fraction unbound [27]: 0.004 | MIC95 [31]: 2.03 µM
SMILES: O=C(CCCOc1ccc(NS(=O)(=O)c2cnn(-c3ccc(F)cc3)c2)c(C(=O)O)c1)Nc1ccc(NS(=O)(=O)c2cnn(-c3ccc(F)cc3)c2)c(C(=O)O)c1
EC50 at 24 h [1]: > 42 µM | Activity [17]: 8.3 log10CFU/g | Selectivity ratio [18]: 7.3 | fold change (FC) [19]: 0.9 | Activity [20]: 5.9 log10CFU/g | fold change (FC) [21]: 1.4 | Activity [22]: 8.8 log10CFU/g | fold change (FC) [24]: 0 | Activity [25]: 4.4 log10CFU/g | Activity [26]: 6.5 log10CFU/g | Activity [28]: 6.2 log10CFU/g | fold change (FC) [29]: 0.63 | fold change (FC) [30]: 1.9 | fold change (FC) [32]: 0.36

MIC95 [2]: 0.277 µM (≈ 0.223 µg/mL) | MIC95 [3]: 6.25 µM | Cmax [33]: 626 µM | fraction unbound [34]: 0.006 | Cmax [35]: 662 µM | EC50 [6]: 69 nM | fraction unbound [38]: 0.004 | AUC [39]: 2270 µM·h | MIC95 [23]: 50 µM | AUC [40]: 22200 µM·h | fraction unbound [27]: 0.002
SMILES: O=C(O)c1cc(CN2CC(Oc3ccc(NS(=O)(=O)c4cnn(-c5ccc(F)cc5)c4)c(C(=O)O)c3)C2)ccc1NS(=O)(=O)c1cnn(-c2ccc(F)cc2)c1
EC50 at 24 h [1]: > 42 µM | Activity [36]: 4.4 log10CFU/g | fold change (FC) [37]: 1.9 | Activity [28]: 3.3 log10CFU/g | fold change (FC) [32]: 3.2 | Selectivity ratio [9]: 23

SMILES: CN(C)c1cc(NC(=O)CNC(C)(C)C)c(O)c2c1C[C@H]1C[C@H]3[C@H](N(C)C)C(O)=C(C(N)=O)C(=O)[C@@]3(O)C(O)=C1C2=O [TIGECYCLINE]
fold change (FC) [41]: 3 | fold change (FC) [42]: 2.8 | Activity [43]: 2.85 log10CFU/g | Activity [44]: 3.5 log10CFU/g | Activity [45]: 3.5 log10CFU/g | fold change (FC) [30]: 2.8
